From paper PMC6136390, “Coptisine-induced inhibition of Helicobacter pylori: elucidation of specific mechanisms by probing urease active site and its maturation process” (Journal of Enzyme Inhibition and Medicinal Chemistry, 2018)
≈ marks a conversion by molar mass, not a printed value. Read-outs that look alike come from different tables or passages of the source.

Tests used:
H. pylori strains = assay: Minimal inhibitory concentration assay (agar dilution); assay type: cell-based, Helicobacter pylori; conditions: Helicobacter pylori, NCTC11637; standard strain NCTC 11637, pH 7.2; read-out: MIC
Source text: Fourteen H. pylori strains were used in this study. NCTC 11637 and NCTC 26695 strains were purchased from American Type Culture Collection. Sydney Strain-1 (SS1) was kindly provided by Prof. Richard Ferrero of Monash University, Australia. Clinical isolate ICDC 111001 was provided by Prof. Zhang Jian-zhong of the Chinese Center for Disease Control and Prevention, China. Ten clinical isolates (Hp1868, Hp1869, Hp1870, Hp1871, Hp1872, Hp1873, Hp1874, Hp1875, Hp1876, and Hp1877) were obtained from Renji Hospital, Shanghai Jiaotong University.
(§1) All strains were cultured in Columbia agar base containing 7% sheep blood at 37 °C in a micro-aerophilic environment (5% O2, 10% CO2, and 85% N2). After 3 days, H. pylori was scraped and suspended in phosphate buffered saline (PBS). Turbidimetry was employed to adjust the concentrations of different H. pylori strains (turbidity equivalent to 1.0 McFarland standard). Crude HPU was obtained according to the method described by Matsubara et al.[42]
In this study, different concentrations (12.5, 25, 50, and 100 μg/mL) of berberine, palmatine, epiberberine, jatrorrhizine, and coptisine were used to evaluate antimicrobial activity against the standard H. pylori strain NCTC 11637. The agar dilution method was then used to analyse the antibacterial effects of coptisine against two H. pylori standard strains (SS1 and NCTC 26695) and eleven clinical isolates (ICDC 111001, HP 1868, HP 1869, HP 1870, HP 1871, HP 1872, HP 1873, HP 1874, HP 1875, HP 1876, and HP 1877). In this assay, 100 μL of H. pylori suspension (McFarland = 1.0) was added to the test compound-containing or DMSO-containing (control) Columbia blood agar plate. CLR and MET were used as positive controls in this experiment. Minimum inhibitory concentration (MIC) was defined as the lowest concentration at which no strain growth was observed by visual examination after 3 days. This experiment was repeated twice.

H. pylori cells (SS1) = assay: pH shock experiment in vivo (urea-dependent survival of H. pylori); assay type: cell-based, Helicobacter pylori; conditions: 30 min; for surviving bacteria, pH =1: 100 mM HCl pH 1, 5 mM urea; for surviving bacteria, pH =7.2: PBS pH 7.2, 5 mM urea; for inhibition at 100 µM: Helicobacter pylori, 0.5 h
Experimental: H. pylori cells (SS1) were harvested, and the concentration was adjusted to Mc = 4 with saline. Then, bacterial samples were mixed with AHA (positive control, 5 mM) or one of the five alkaloids from Rhizoma Coptidis (coptisine, berberine, jatrorrhizine, epiberberine, and palmatine) in 100 mM HCl (pH = 1) or PBS (pH = 7.2) at 37 °C with or without 5 mM urea. After 30 min of incubation, bacteria were collected by centrifugation at 2000g for 10 min and resuspended in the same volume of PBS. A dilution series (1:1–1:10000) was made from the samples, and the dilutions were plated on solid agar for 5 days to form single colony. Samples from urea-free wells were used as controls. Results are expressed as CFU/mL; the experiment was repeated in triplicate. Inhibition rate was calculated using the following equation: Inhibition rate = (Urea group bacterial mean − X group bacterial mean)/Urea group bacterial mean ×100%, where X represents each experimental group.

urease = test system: urease; parameters: method as in PMID 26669678; conditions: cited from earlier work
H. pylori urease (HPU) = target: T1, H. pylori urease (HPU) (Helicobacter pylori, UniProt P69996); assay: Urease inhibition assay in vitro (modified Berthelot method); assay type: biochemical; conditions: 20 min pre-incubation at 37 °C, 150 mM urea, pH 7.5; read-out: IC50 for HPU
T1 construct: Crude HPU was obtained according to the method described by Matsubara et al; endogenous in cells; host or cells: cultured Helicobacter pylori (strain not specified)
Experimental: as §1
This assay was performed using the modified Berthelot method (phenol-hypochlorite) in 96 well plates. At the beginning of each reaction, different concentrations of urease solution and 150 mM urea as a substrate were mixed in 20 mM HEPES buffer (pH 7.5) at 37 °C. After a 20-min reaction, urease activity was tested by measuring the concentration of ammonia produced by the reaction at 595 nm using the microplate reader (Thermo Fisher Multiskan FC, Instruments, Inc., USA) at ambient temperature. […] One unit (U) of urease activity was defined as the amount of urease required to catalyse 1 μmol urea per min. […]
Coptisine’s ability to inhibit urease activity was determined by measuring amounts of ammonia produced using the modified Berthelot method described above. […] Residual activity (RA %) for each assay was calculated using the following equation: RA % = (activity with inhibitors/activity without inhibitors) × 100%. […]

jack bean urease (JBU) = target: T2, jack bean urease (JBU) (Canavalia ensiformis, UniProt P07374); assay: as above; assay type: biochemical; conditions: 20 min pre-incubation at 37 °C, 150 mM urea, pH 7.5; read-out: IC50 for JBU
T2 construct: purchased Sigma Aldrich (Steineheim, Germany) type III (catalogue number not given)
Experimental: This assay was performed using the modified Berthelot method (phenol-hypochlorite) in 96 well plates. At the beginning of each reaction, different concentrations of urease solution and 150 mM urea as a substrate were mixed in 20 mM HEPES buffer (pH 7.5) at 37 °C. After a 20-min reaction, urease activity was tested by measuring the concentration of ammonia produced by the reaction at 595 nm using the microplate reader (Thermo Fisher Multiskan FC, Instruments, Inc., USA) at ambient temperature. […] One unit (U) of urease activity was defined as the amount of urease required to catalyse 1 μmol urea per min. These experiments were repeated in triplicate.
Coptisine’s ability to inhibit urease activity was determined by measuring amounts of ammonia produced using the modified Berthelot method described above. The assay mixture, which contained 200 μL of enzyme and 200 μL of coptisine solution (0.16–2.51 mM) in 200 μL of 20 mM HEPES buffer (pH 7.5), was incubated for 20 min at 37 °C in 96-well plates. The reaction was then initiated by adding urea solution (150 mM) to determine residual urease activity. AHA was used as a standard urease inhibitor. […] Residual activity (RA %) for each assay was calculated using the following equation: RA % = (activity with inhibitors/activity without inhibitors) × 100%. […]

[1] = 100 μM compound, pH 1, 5 mM urea
[2] = 100 μM compound, pH 7.2, 5 mM urea
[3] = 100 μM compound, pH 1, 5 mM urea, read-out: Inhibition rate, pH =1
[4] = 100 μM compound, pH 7.2, 5 mM urea, read-out: Inhibition rate, pH =7.2

T1 sequence (P69996 whole entry): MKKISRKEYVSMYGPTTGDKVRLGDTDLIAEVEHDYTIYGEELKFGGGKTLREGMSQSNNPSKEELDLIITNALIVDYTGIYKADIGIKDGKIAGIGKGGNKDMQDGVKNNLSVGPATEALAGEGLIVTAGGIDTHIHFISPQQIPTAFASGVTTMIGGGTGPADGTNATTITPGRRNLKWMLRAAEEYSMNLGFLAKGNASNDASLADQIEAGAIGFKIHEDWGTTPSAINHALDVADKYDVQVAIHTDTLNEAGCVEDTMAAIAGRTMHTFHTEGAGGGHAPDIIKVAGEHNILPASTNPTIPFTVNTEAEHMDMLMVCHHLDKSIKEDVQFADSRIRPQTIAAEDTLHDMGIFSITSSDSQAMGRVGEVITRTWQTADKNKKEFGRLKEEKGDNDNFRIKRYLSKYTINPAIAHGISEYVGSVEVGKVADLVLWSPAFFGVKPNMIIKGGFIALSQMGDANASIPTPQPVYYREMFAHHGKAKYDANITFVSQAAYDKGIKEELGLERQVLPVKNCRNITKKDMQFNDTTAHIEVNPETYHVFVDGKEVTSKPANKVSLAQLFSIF
T1 sequence (P14916 whole entry, further chain): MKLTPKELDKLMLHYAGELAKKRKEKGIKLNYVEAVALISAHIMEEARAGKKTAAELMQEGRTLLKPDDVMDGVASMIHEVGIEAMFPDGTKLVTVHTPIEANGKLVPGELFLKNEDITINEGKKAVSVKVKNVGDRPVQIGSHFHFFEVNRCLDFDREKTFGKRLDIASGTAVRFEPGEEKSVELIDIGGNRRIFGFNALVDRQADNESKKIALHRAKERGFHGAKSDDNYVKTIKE
T2 sequence (P07374 whole entry, looked up): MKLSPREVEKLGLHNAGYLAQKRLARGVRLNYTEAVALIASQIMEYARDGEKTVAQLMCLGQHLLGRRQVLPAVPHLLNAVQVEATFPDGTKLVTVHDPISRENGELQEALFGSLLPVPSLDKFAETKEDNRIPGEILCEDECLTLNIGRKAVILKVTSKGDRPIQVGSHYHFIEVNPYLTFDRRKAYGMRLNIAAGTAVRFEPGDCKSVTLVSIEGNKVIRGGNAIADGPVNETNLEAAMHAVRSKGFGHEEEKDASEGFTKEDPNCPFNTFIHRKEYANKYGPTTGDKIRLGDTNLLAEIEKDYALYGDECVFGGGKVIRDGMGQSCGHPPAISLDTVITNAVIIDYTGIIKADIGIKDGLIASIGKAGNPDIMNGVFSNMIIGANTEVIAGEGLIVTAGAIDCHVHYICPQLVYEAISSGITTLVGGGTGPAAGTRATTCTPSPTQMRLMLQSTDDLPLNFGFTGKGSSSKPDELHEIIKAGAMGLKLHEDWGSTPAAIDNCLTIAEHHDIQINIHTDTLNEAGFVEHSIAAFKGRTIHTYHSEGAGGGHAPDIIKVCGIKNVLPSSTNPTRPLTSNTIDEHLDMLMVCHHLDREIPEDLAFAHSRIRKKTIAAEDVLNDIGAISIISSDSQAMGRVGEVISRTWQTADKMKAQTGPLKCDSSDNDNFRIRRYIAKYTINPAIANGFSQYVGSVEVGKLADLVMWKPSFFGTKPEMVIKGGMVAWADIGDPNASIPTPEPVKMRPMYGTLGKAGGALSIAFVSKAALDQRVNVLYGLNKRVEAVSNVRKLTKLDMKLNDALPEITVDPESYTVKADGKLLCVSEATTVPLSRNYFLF

Row | SMILES | MIC (H. pylori strains) [µg/mL] | surviving bacteria, pH =1 (H. pylori cells (SS1); 100 μM compound) [CFU/mL] | surviving bacteria, pH =7.2 (H. pylori cells (SS1); 100 μM compound) | Inhibition rate, pH =1 (H. pylori cells (SS1); [1]) | Inhibition rate, pH =7.2 (H. pylori cells (SS1); [2]) | inhibition at 100 µM (H. pylori cells (SS1); [3]) [%] | inhibition at 100 µM (H. pylori cells (SS1); [4]) [%] | inhibitory activity against urease (urease) | surviving bacteria, pH =1 (H. pylori cells (SS1); 5 mM compound) [CFU/mL] | surviving bacteria, pH =7.2 (H. pylori cells (SS1); 5 mM compound) | Inhibition rate, pH =1 (H. pylori cells (SS1); 5 mM compound, pH 1, 5 mM urea) [%] | Inhibition rate, pH =7.2 (H. pylori cells (SS1); 5 mM compound, pH 7.2, 5 mM urea) [%] | IC50 (H. pylori urease (HPU)) [µM] | IC50 (jack bean urease (JBU)) [µM]
1 | Cc1ncc([N+](=O)[O-])n1CCO [MET, Metronidazole, reference compound] | 0.5 (≈ 2.92 µM) |  |  |  |  |  |  |  |  |  |  |  |  | 
2 | COc1cc2c(cc1OC)-c1cc3ccc(OC)c(OC)c3c[n+]1CC2 [Palmatine] | 100 | 628 ± 110 | 1.2 ± 0.4 ×10^4 CFU/mL | failed to inhibit | failed to inhibit | 0 | 0 |  |  |  |  |  |  | 
3 | COc1ccc2cc3[n+](cc2c1OC)CCc1cc2c(cc1-3)OCO2 [Berberine] | 50 | 587 ± 103 | 1.2 ± 0.4 ×10^4 CFU/mL | failed to inhibit | failed to inhibit | 0 | 0 | fails to show any inhibitory activity |  |  |  |  |  | 
4 | CC[C@H]1OC(=O)[C@H](C)[C@@H](O[C@H]2C[C@@](C)(OC)[C@@H](O)[C@H](C)O2)[C@H](C)[C@@H](O[C@@H]2O[C@H](C)C[C@H](N(C)C)[C@H]2O)[C@](C)(OC)C[C@@H](C)C(=O)[C@H](C)[C@@H](O)[C@]1(C)O [CLR, Clarithromycin, reference compound] | 0.02 (≈ 0.0267 µM) |  |  |  |  |  |  |  |  |  |  |  |  | 
5 | CC(=O)NO [Acetohydroxamic acid, reference compound] |  |  |  |  |  |  |  |  | 0 ± 0 | 1.7 ± 0.4 ×10^4 CFU/mL | 100 | 0 | 90 ± 10 | 20 ± 10
6 | COc1cc2c(cc1OC)-c1cc3ccc4c(c3c[n+]1CC2)OCO4 [Epiberberine] | 100 | 481 ± 92 | 1.3 ± 0.3 ×10^4 CFU/mL | failed to inhibit | failed to inhibit | 0 | 0 |  |  |  |  |  |  | 
7 | COc1cc2c(cc1O)CC[n+]1cc3c(OC)c(OC)ccc3cc1-2 [Jatrorrhizine] | 100 | 552 ± 98 | 1.2 ± 0.3 ×10^4 CFU/mL | failed to inhibit | failed to inhibit | 0 | 0 |  |  |  |  |  |  | 
